Test results as given in ChEMBL document CHEMBL4043152, “Design, synthesis, and cytotoxic activity of novel 7-substituted camptothecin derivatives incorporating piperazinyl-sulfonylamidine moieties” (Bioorg Med Chem Lett, 2017).

Test system: A549
Experiment: Cytotoxicity against human A549 cells after 72 hrs by SRB assay
Type: functional, cell-based
Settings: A549, 72 h
`CC[C@@]1(O)C(=O)OCc2c1cc1n(c2=O)Cc2c-1nc1ccccc1c2CN1CCN(/C(Cc2ccc(OC)cc2)=N\S(=O)(=O)c2cccnc2)CC1` showed an IC50 of 800 nM.
`CC[C@@]1(O)C(=O)OCc2c1cc1n(c2=O)Cc2c-1nc1ccccc1c2CN1CCN(/C(Cc2ccc(F)cc2)=N\S(=O)(=O)c2ccc3ccccc3c2)CC1` showed an IC50 of 600 nM.
In the case of `CC[C@@]1(O)C(=O)OCc2c1cc1n(c2=O)Cc2c-1nc1ccccc1c2CN1CCN(/C(Cc2ccccc2)=N\S(=O)(=O)CC)CC1`, the IC50 is reported as 730 nM.
`CC[C@@]1(O)C(=O)OCc2c1cc1n(c2=O)Cc2c-1nc1ccccc1c2CN1CCN(/C(Cc2ccccc2)=N\S(=O)(=O)c2ccccc2)CC1` gave an IC50 of 650 nM.
Work on `CC[C@@]1(O)C(=O)OCc2c1cc1n(c2=O)Cc2c-1nc1ccccc1c2CN1CCN(/C(Cc2ccc(OC)cc2)=N\S(=O)(=O)CC)CC1` yielded an IC50 of 710 nM.
With `CC[C@@]1(O)C(=O)OCc2c1cc1n(c2=O)Cc2c-1nc1ccccc1c2CN1CCN(/C(Cc2ccc(F)cc2)=N\S(=O)(=O)c2ccc(C)cc2)CC1` the IC50 was 1770 nM.
With `CC[C@@]1(O)C(=O)OCc2c1cc1n(c2=O)Cc2c-1nc1ccccc1c2CN1CCN(/C(Cc2ccc(OC)cc2)=N\S(=O)(=O)c2ccc(C)cc2)CC1` the IC50 was 740 nM.
`CC[C@@]1(O)C(=O)OCc2c1cc1n(c2=O)Cc2c-1nc1ccccc1c2CN1CCN(/C(Cc2ccc(F)cc2)=N\S(=O)(=O)c2ccc(F)cc2)CC1` gave an IC50 of 4310 nM.
`CCc1c2c(nc3ccc(OC(=O)N4CCC(N5CCCCC5)CC4)cc13)-c1cc3c(c(=O)n1C2)COC(=O)[C@]3(O)CC` [IRINOTECAN] gave an IC50 of 8310 nM.
For `CC[C@@]1(O)C(=O)OCc2c1cc1n(c2=O)Cc2cc3c(CN(C)C)c(O)ccc3nc2-1` [TOPOTECAN], the IC50 was 110 nM.

Test system: MDA-MB-231
Experiment: Cytotoxicity against human MDA-MB-231 cells after 72 hrs by SRB assay
Type: functional, cell-based
Settings: MDA-MB-231, 72 h
`CC[C@@]1(O)C(=O)OCc2c1cc1n(c2=O)Cc2c-1nc1ccccc1c2CN1CCN(/C(Cc2ccc(OC)cc2)=N\S(=O)(=O)c2cccnc2)CC1` showed an IC50 of 4960 nM.
Work on `CC[C@@]1(O)C(=O)OCc2c1cc1n(c2=O)Cc2c-1nc1ccccc1c2CN1CCN(/C(Cc2ccc(F)cc2)=N\S(=O)(=O)c2ccc3ccccc3c2)CC1` yielded an IC50 of 5410 nM.
Molecule `CC[C@@]1(O)C(=O)OCc2c1cc1n(c2=O)Cc2c-1nc1ccccc1c2CN1CCN(/C(Cc2ccccc2)=N\S(=O)(=O)CC)CC1` has an IC50 of 3500 nM.
`CC[C@@]1(O)C(=O)OCc2c1cc1n(c2=O)Cc2c-1nc1ccccc1c2CN1CCN(/C(Cc2ccccc2)=N\S(=O)(=O)c2ccccc2)CC1` showed an IC50 of 4410 nM.
Work on `CC[C@@]1(O)C(=O)OCc2c1cc1n(c2=O)Cc2c-1nc1ccccc1c2CN1CCN(/C(Cc2ccc(OC)cc2)=N\S(=O)(=O)CC)CC1` yielded an IC50 of 3810 nM.
Work on `CC[C@@]1(O)C(=O)OCc2c1cc1n(c2=O)Cc2c-1nc1ccccc1c2CN1CCN(/C(Cc2ccc(F)cc2)=N\S(=O)(=O)c2ccc(C)cc2)CC1` yielded an IC50 of 6010 nM.
For `CC[C@@]1(O)C(=O)OCc2c1cc1n(c2=O)Cc2c-1nc1ccccc1c2CN1CCN(/C(Cc2ccc(OC)cc2)=N\S(=O)(=O)c2ccc(C)cc2)CC1`, the IC50 was 5840 nM.
Molecule `CC[C@@]1(O)C(=O)OCc2c1cc1n(c2=O)Cc2c-1nc1ccccc1c2CN1CCN(/C(Cc2ccc(F)cc2)=N\S(=O)(=O)c2ccc(F)cc2)CC1` has an IC50 of 10200 nM.

Test system: KB
Experiment: Cytotoxicity against human KB cells after 72 hrs by SRB assay
Type: functional, cell-based
Settings: not given
Work on `CC[C@@]1(O)C(=O)OCc2c1cc1n(c2=O)Cc2c-1nc1ccccc1c2CN1CCN(/C(Cc2ccc(OC)cc2)=N\S(=O)(=O)c2cccnc2)CC1` yielded an IC50 of 880 nM.
Work on `CC[C@@]1(O)C(=O)OCc2c1cc1n(c2=O)Cc2c-1nc1ccccc1c2CN1CCN(/C(Cc2ccc(F)cc2)=N\S(=O)(=O)c2ccc3ccccc3c2)CC1` yielded an IC50 of 4720 nM.
`CC[C@@]1(O)C(=O)OCc2c1cc1n(c2=O)Cc2c-1nc1ccccc1c2CN1CCN(/C(Cc2ccccc2)=N\S(=O)(=O)CC)CC1` gave an IC50 of 490 nM.
In the case of `CC[C@@]1(O)C(=O)OCc2c1cc1n(c2=O)Cc2c-1nc1ccccc1c2CN1CCN(/C(Cc2ccccc2)=N\S(=O)(=O)c2ccccc2)CC1`, the IC50 is reported as 630 nM.
With `CC[C@@]1(O)C(=O)OCc2c1cc1n(c2=O)Cc2c-1nc1ccccc1c2CN1CCN(/C(Cc2ccc(OC)cc2)=N\S(=O)(=O)CC)CC1` the IC50 was 470 nM.
`CC[C@@]1(O)C(=O)OCc2c1cc1n(c2=O)Cc2c-1nc1ccccc1c2CN1CCN(/C(Cc2ccc(F)cc2)=N\S(=O)(=O)c2ccc(C)cc2)CC1` gave an IC50 of 1070 nM.
`CC[C@@]1(O)C(=O)OCc2c1cc1n(c2=O)Cc2c-1nc1ccccc1c2CN1CCN(/C(Cc2ccc(OC)cc2)=N\S(=O)(=O)c2ccc(C)cc2)CC1` showed an IC50 of 830 nM.
`CC[C@@]1(O)C(=O)OCc2c1cc1n(c2=O)Cc2c-1nc1ccccc1c2CN1CCN(/C(Cc2ccc(F)cc2)=N\S(=O)(=O)c2ccc(F)cc2)CC1` showed an IC50 of 10100 nM.

Test system: MCF7
Experiment: Cytotoxicity against human MCF7 cells after 72 hrs by SRB assay
Type: functional, cell-based
Settings: MCF7, 72 h
Work on `CC[C@@]1(O)C(=O)OCc2c1cc1n(c2=O)Cc2c-1nc1ccccc1c2CN1CCN(/C(Cc2ccc(OC)cc2)=N\S(=O)(=O)c2cccnc2)CC1` yielded an IC50 of 4220 nM.
`CC[C@@]1(O)C(=O)OCc2c1cc1n(c2=O)Cc2c-1nc1ccccc1c2CN1CCN(/C(Cc2ccc(F)cc2)=N\S(=O)(=O)c2ccc3ccccc3c2)CC1` showed an IC50 of 4740 nM.
Work on `CC[C@@]1(O)C(=O)OCc2c1cc1n(c2=O)Cc2c-1nc1ccccc1c2CN1CCN(/C(Cc2ccccc2)=N\S(=O)(=O)CC)CC1` yielded an IC50 of 1900 nM.
`CC[C@@]1(O)C(=O)OCc2c1cc1n(c2=O)Cc2c-1nc1ccccc1c2CN1CCN(/C(Cc2ccccc2)=N\S(=O)(=O)c2ccccc2)CC1` showed an IC50 of 2250 nM.
Molecule `CC[C@@]1(O)C(=O)OCc2c1cc1n(c2=O)Cc2c-1nc1ccccc1c2CN1CCN(/C(Cc2ccc(OC)cc2)=N\S(=O)(=O)CC)CC1` has an IC50 of 2900 nM.
For `CC[C@@]1(O)C(=O)OCc2c1cc1n(c2=O)Cc2c-1nc1ccccc1c2CN1CCN(/C(Cc2ccc(F)cc2)=N\S(=O)(=O)c2ccc(C)cc2)CC1`, the IC50 was 7040 nM.
In the case of `CC[C@@]1(O)C(=O)OCc2c1cc1n(c2=O)Cc2c-1nc1ccccc1c2CN1CCN(/C(Cc2ccc(OC)cc2)=N\S(=O)(=O)c2ccc(C)cc2)CC1`, the IC50 is reported as 5670 nM.
For `CC[C@@]1(O)C(=O)OCc2c1cc1n(c2=O)Cc2c-1nc1ccccc1c2CN1CCN(/C(Cc2ccc(F)cc2)=N\S(=O)(=O)c2ccc(F)cc2)CC1`, the IC50 was 8850 nM.
`CCc1c2c(nc3ccc(OC(=O)N4CCC(N5CCCCC5)CC4)cc13)-c1cc3c(c(=O)n1C2)COC(=O)[C@]3(O)CC` [IRINOTECAN] gave an IC50 of 11300 nM.
With `CC[C@@]1(O)C(=O)OCc2c1cc1n(c2=O)Cc2cc3c(CN(C)C)c(O)ccc3nc2-1` [TOPOTECAN] the IC50 was 280 nM.

Test system: not listed separately
Experiment: Cytotoxicity against human KBVIN cells after 72 hrs by SRB assay
Type: functional, cell-based
Settings: not given
With `CC[C@@]1(O)C(=O)OCc2c1cc1n(c2=O)Cc2c-1nc1ccccc1c2CN1CCN(/C(Cc2ccc(OC)cc2)=N\S(=O)(=O)c2cccnc2)CC1` the IC50 was 2380 nM.
`CC[C@@]1(O)C(=O)OCc2c1cc1n(c2=O)Cc2c-1nc1ccccc1c2CN1CCN(/C(Cc2ccc(F)cc2)=N\S(=O)(=O)c2ccc3ccccc3c2)CC1` gave an IC50 of 380 nM.
Work on `CC[C@@]1(O)C(=O)OCc2c1cc1n(c2=O)Cc2c-1nc1ccccc1c2CN1CCN(/C(Cc2ccccc2)=N\S(=O)(=O)CC)CC1` yielded an IC50 of 4290 nM.
`CC[C@@]1(O)C(=O)OCc2c1cc1n(c2=O)Cc2c-1nc1ccccc1c2CN1CCN(/C(Cc2ccccc2)=N\S(=O)(=O)c2ccccc2)CC1` gave an IC50 of 1770 nM.
Work on `CC[C@@]1(O)C(=O)OCc2c1cc1n(c2=O)Cc2c-1nc1ccccc1c2CN1CCN(/C(Cc2ccc(OC)cc2)=N\S(=O)(=O)CC)CC1` yielded an IC50 of 2730 nM.
Molecule `CC[C@@]1(O)C(=O)OCc2c1cc1n(c2=O)Cc2c-1nc1ccccc1c2CN1CCN(/C(Cc2ccc(F)cc2)=N\S(=O)(=O)c2ccc(C)cc2)CC1` has an IC50 of 2770 nM.
In the case of `CC[C@@]1(O)C(=O)OCc2c1cc1n(c2=O)Cc2c-1nc1ccccc1c2CN1CCN(/C(Cc2ccc(OC)cc2)=N\S(=O)(=O)c2ccc(C)cc2)CC1`, the IC50 is reported as 3080 nM.
For `CC[C@@]1(O)C(=O)OCc2c1cc1n(c2=O)Cc2c-1nc1ccccc1c2CN1CCN(/C(Cc2ccc(F)cc2)=N\S(=O)(=O)c2ccc(F)cc2)CC1`, the IC50 was 1810 nM.
In the case of `CCc1c2c(nc3ccc(OC(=O)N4CCC(N5CCCCC5)CC4)cc13)-c1cc3c(c(=O)n1C2)COC(=O)[C@]3(O)CC` [IRINOTECAN], the IC50 is reported as > 20000 nM.
With `CC[C@@]1(O)C(=O)OCc2c1cc1n(c2=O)Cc2cc3c(CN(C)C)c(O)ccc3nc2-1` [TOPOTECAN] the IC50 was 660 nM.
